3 compounds from patent US12414935B2, “Compounds and methods for the treatment of parasitic diseases” (WASHINGTON UNIVERSITY, priority 2019, dated 2025) can be followed below.

Test [1] relates to C. parvum. The experiment in a line: C. parvum in vitro EC50 assay in ALI culture. Format: cell-based. Particulars: Cryptosporidium parvum, 48 hr, Mean +/- S.D., N = 2, 5 pt curve. The protocol:
(§1) In vitro assays measuring the EC50 value for C. parvum infection may be run to determine the efficacy of the compounds. For example, human ileocecal adenocarcinoma (HCT-8) cells can be obtained from ATCC and maintained in T-75 tissue culture flasks with RPMI 1640 medium with HEPES, sodium pyruvate (1 mM), and L-glutamine (ATCC) supplemented with 10% horse serum (ATCC) and 120 U/ml penicillin and 120 μg/ml streptomycin. Cells can be plated into 384-well, tissue culture-treated, black-walled, clearbottom microwell plates (BD Falcon) at a density of 8,850 cells/well and allowed to grow to confluence. The cells may then be inoculated with 5.5×10^3 primed C. parvum oocysts (Bunchgrass Farms, Deary, ID) suspended in inoculation medium (RPMI 1640 without horse serum). Oocysts may be primed for excystation by following a previously described protocol (J. Eukaryot. Microbiol. 46:56S-57S). Briefly, oocysts can be treated for 10 min with 10 mM HCl at 37° C., centrifuged, and treated with a 2 mM solution of sodium taurocholate (Sigma-Aldrich) in phosphate-buffered saline (PBS) with Ca^2+ and Mg^2+. The suspension can be incubated for 10 min at 16° C. and then diluted in inoculation medium and added to each well. Infected cells are incubated at 37° C. for 3 h, at which point an equal volume of growth medium containing 20% horse serum (total serum concentration of 10%) is produced. Compounds are diluted and assayed at fixed doses (e.g., 0.12, 0.37, 1.1, 3.3, and 10 μM, with each concentration, n=14) for the generation of EC50 curves. In the case of final EC50 curves, three wells are left uninfected but treated with each of the corresponding concentrations of the compound to assess for background staining. All curves are generated using the log[inhibitor] versus response variable slope equation in GraphPad Prism, with the bottom constraint set equal to 0.
(§2) Such assays were prepared on HTC-8 cells and ALI. Table 2 illustrates measured EC50 at various time points.
Briefly, i3T3 cells were plated in CM media. Spheroids were plated on the cells. […]

Test [2] deals with C. parvum. The experiment in a line: C. parvum in vitro EC50 assay in HCT-8 cells. Format: cell-based. Conditions: Cryptosporidium parvum, HCT8 cells, 24 hr, Mean +/- S.D., N = 3, 9 pt curve. The protocol: as §1, §2

As a reminder, the EC50 is the concentration giving half of the maximal effect. Take `CC(=O)Oc1ccccc1C(=O)Nc1ncc([N+](=O)[O-])s1` [Nitazoxanide, reference compound]: the figures for the EC50 with C. parvum [1] and with C. parvum [2] were 25900 ± 4140 nM and 2190 ± 378 nM, respectively.

As for `COc1ccc(NC(=O)N2CCCCN3[C@H](CN(C)C)[C@H](c4ccc(C#Cc5ccccc5)cc4)[C@@H]3C2)cc1` [Compound 2, (8R,9S,10S)-10-((dimethylamino)methyl)-N-(4-methoxyphenyl)-9-(4-(phenylethynyl)phenyl)-1,6-diazabicyclo[6.2.0]decane-6-carboxamide], the EC50 in the test with C. parvum [1] amounted to 113 ± 15 nM; in the test on C. parvum [2], 33 ± 9 nM.

Consider `COc1ccc(NC(=O)N2CCCCN3[C@H](CN(C)S(C)(=O)=O)[C@H](c4ccc(C#Cc5ccccc5)cc4)[C@@H]3C2)cc1` [Compound 1, (8R,9R,10S)-N-(4-methoxyphenyl)-10-((N-methylmethylsulfonamido)methyl)-9-(4-(phenylethynyl)phenyl)-1,6-diazabicyclo[6.2.0]decane-6-carboxamide], for which the EC50 with C. parvum [1] was 28 ± 2 nM; in the test on C. parvum [2], 11 ± 3 nM.
